Earlier results in patent publication US20060104967A1, “Method of converting the state of proteins” (priority 2004, published 2006).
*1 amine or outer side, *2 acyl side, *3 side chain or, on linkers, in order; H or OH if unused. Where a SMILES comes first, the peptide text is derived from it. Bridges are numbered along the chain shown (N, C = ends). [ ]: non-standard residue; d: D form. Adda = CO[C@@H](Cc1ccccc1)[C@@H](C)/C=C(C)/C=C/[C@H](N[*:1])[C@H](C)C(=O)[*:2]; dAsp(3S-Me) = C[C@H](C(=O)[*:3])[C@@H](N[*:1])C(=O)[*:2]; d(γGlu) = O=C(O)[C@@H](CCC(=O)[*:2])N[*:1]; NMeDha = C=C(NC)C(=O)O

Target: PP2B
Settings: read-out: Ki values for PP2B, concentrations of inhibitors where the enzyme activity becomes to half

For `C=C1[C@@H](O)[C@@H]2O[C@]3(CC[C@H](/C=C/[C@@H](C)[C@@H]4CC(C)=C[C@@]5(O[C@H](C[C@@](C)(O)C(=O)O)CC[C@H]5O)O4)O3)CC[C@H]2O[C@@H]1[C@@H](O)C[C@H](C)[C@H]1O[C@@]2(CCCCO2)CC[C@H]1C` [okadaic acid], the Ki is given as 5 mM.

In the case of `C=C1C(=O)N[C@H](C)C(=O)N[C@@H](CC(C)C)C(=O)N[C@@H](C(=O)O)[C@H](C)C(=O)N[C@@H](CCCNC(=N)N)C(=O)N[C@@H](/C=C/C(C)=C/[C@H](C)[C@H](Cc2ccccc2)OC)[C@H](C)C(=O)N[C@@H](C(=O)O)CCC(=O)N1C` [microcystin LR] (R[Adda][d(γGlu)][NMeDha][dA]L[dAsp(3S-Me)]-OH; lactam N-7), the Ki is listed as 0.2 mM.
